Experiments:
Format in all cases: cell-based
THP-1 = experiment: CellTiter 96 Aqueous cell proliferation assay; details: Homo sapiens, 72 hr continuous treatment
Text: (§1) Correlation of IC50 to the AML induction drugs Dox and Ara-C were first performed with the adherent bladder cancer cell lines 5637 and 5637R for cytarabine and with the adherent ovarian cancer cell lines A2780 and A2780ADR for doxorubicin. Cell lines 5637 and 5637R (Ara-C resistant) have been described previously (20). A2780 and A2780ADR (doxorubicin resistant) were purchased from Sigma-Aldrich and grown as recommended. IC50 values were obtained by plating 4000 cells per well in 96-well plates the night before treatment, and then allowing the cells to adhere over night. Leukemia cell lines capable of continuous proliferation in suspension and having differential sensitivities to Dox and Ara-C were also obtained for correlation analysis. MV-4-11 (acute monocytic leukemia) and THP-1 (acute monocytic leukemia) human cell lines were purchased from American Type Culture Collection (ATCC, Manassas, Va.). MOLM-13 (acute myeloid leukemia) human cells were purchased from AddexBio (San Diego, Calif.). For leukemia cell lines (suspension cultures), approximately 8,000-11,000 cells were seeded per well in 96-well plates the day of treatment. MV-4-11 cells were grown in IMDM (Iscove's Modified Dulbecco's Media) with 10% FBS, 100 U/ml penicillin, and 100 μg/ml streptomycin. THP-1, A2780, and A2780ADR cells were grown in RPMI-1640 media with 10% FBS, 100 U/ml penicillin, and 100 μg/ml streptomycin. 5637, 5637R, and MOLM-13 cells were grown in RPMI-1640 media with 20% FBS, 100 U/ml penicillin, and 100 μg/ml streptomycin. All cells were cultured at 37° C. in a humidified incubator. The cells were then incubated with increasing doses of cytarabine or doxorubicin continuously for 72 hours. IC50 values were determined using the CellTiter 96 Aqueous Non-Radioactive Cell Proliferation Assay (Promega). […] As shown, 5637 and 5673R have differential sensitivity to cytarabine, while A2780 and A2780ADR have differential sensitivity to doxorubicin. The leukemic suspension cell lines also have differential sensitivity to these two drugs.

MV-4-11 = experiment: CellTiter 96 Aqueous cell proliferation assay; details: Homo sapiens, MV4-11, 72 hr continuous treatment
Text: as §1

A2780 = experiment: CellTiter 96 Aqueous cell proliferation assay; details: Homo sapiens, 72 hr continuous treatment
Text: as §1

MOLM-13 = experiment: CellTiter 96 Aqueous cell proliferation assay; details: Homo sapiens, 72 hr continuous treatment
Text: as §1

A2780ADR = experiment: CellTiter 96 Aqueous cell proliferation assay; details: A2780 ADR, 72 hr continuous treatment
Text: as §1

[1] = system: A2780 and A2780ADR ovarian cancer cell lines; experiment: doxorubicin-DNA adducts by AMS; details: 10 nM or 100 nM DOX 4 h, then 20 hr drug-free
Procedure: In order to assess the formation and loss of intracellular doxorubicin-DNA adducts, ovarian cancer cells were treated with Dox in culture. For doxorubicin-treated cells, one million ovarian cancer cells were seeded in 60-mm dishes the day before treatment and allowed to attach overnight. Similar to the ARA-C bolus protocol, the ovarian cancer cell lines were treated with a low (10 nM) or a high (100 nM) dose of unlabeled DOX supplemented with 0.8 nM of ^14C-labeled DOX (100 dpm/mL, 0.39-3.7 mCi/mmol specific activity (American Radiolabeled Chemicals, Inc.) for 4 h followed by an additional 20 hr of culturing in drug-free media (FIG. 25C). At 24 hrs, the cells were pelleted and washed. DNA was then isolated from these cells using the Qiamp DNA Blood Kit followed by two phenol and one chloroform extractions to remove intercalated DOX according to a published protocol (19). This protocol left intact covalent DOX-DNA adducts that are known to be formed as a consequence of DOX metabolism. Removal of intercalated DOX is important, since it is noncovalently bound and would otherwise partially diffuse out from the DNA sample causing variable results. Ten micrograms of DNA from each sample was converted to graphite and the ratios of ^14C to total C were measured by AMS. AMS was performed on triplicate DNA samples and the results were converted to drug-DNA adducts per ten million nucleotides.

COc1cccc2c1C(=O)c1c(O)c3c(c(O)c1C2=O)C[C@@](O)(C(=O)CO)C[C@@H]3O[C@H]1C[C@H](N)[C@H](O)[C@H](C)O1 [doxorubicin]
IC50 (THP-1): 24 nM | IC50 (MV-4-11): 3 nM | IC50 (A2780): 21 nM | IC50 (MOLM-13): 4 nM | IC50 (A2780ADR): 12000 nM | doxorubicin-DNA adducts in resistant A2780ADR compared to sensitive A2780 [1]: fewer doxorubicine-DNA adducts
